Values after ≈ are worked out from the molar mass of the structure shown.
Experiments:
[1] = tested on: HT-29; experiment: Antitumor cell screening, HT-29 growth inhibition (Crystal Violet); type: cell-based; conditions: Homo sapiens, HT-29, 72 h; HT29; three days incubation at 37° C.; approximate IC50
Protocol: (§1) Cells were maintained in logarithmic phase of growth in Eagle's Minimum Essential Medium, with Earle's Balanced Salts, with 2.0 mM L-Glutamine, with non-essential Amino Acids, without Sodium Bicarbonate (EMEM/NEAA); supplemented with 10% Fetal Calf Serum (FCS), 10^-2M Sodium Bicarbonate and 0.1 g/l Penicillin-G+Streptomycin Sulfate.
(§2) A simple screening procedure has been carried out to determine and compare the antitumor activity of these compounds, using an adapted form of the method described by Bergeron et al. (1984). The antitumor cell employed have been P-388 (suspension culture of a lymphoid neoplasm from DBA/2 mouse), A-549 (monolayer culture of a human lung carcinoma), HT-29 (monolayer culture of a human colon carcinoma) and MEL-28 (monolayer culture of a human melanoma).
(§3) A-549, HT-29 and MEL-28 were seeded into 16 mm wells at 2×10^4 cells per well in 1 ml aliquots of MEM 10FCS containing the indicated concentration of drug. A separate set of cultures without drug was seeded as control growth to ensure that cells remained in exponential phase of growth. All determinations were carried out in duplicate. After three days of incubation at 37° C., 10% CO2 in a 98% humid atmosphere, the wells were stained with 0.1% Crystal Violet. An approximately IC50 was determined by comparing the growth in wells with drug to the growth in wells control.

[2] = tested on: MEL-28; experiment: Antitumor cell screening, MEL-28 growth inhibition (Crystal Violet); type: cell-based; conditions: Homo sapiens, SK-MEL-28, 72 h; MEL28; three days incubation at 37° C.; approximate IC50
Protocol: as §1, §2, §3

[3] = tested on: P-388; experiment: Antitumor cell screening, P-388 growth inhibition; type: cell-based, DBA/2 mouse; conditions: Mus musculus, 72 h; P388; three days incubation at 37° C.; approximate IC50
Protocol: as §1, §2
as §3, with “P-388 cells” for “A-549, HT-29 and MEL-28”, “1×10^4” for “2×10^4”, “5FCS” for “10FCS”, “an” for “the wells were stained with 0.1% Crystal Violet. An”

[4] = tested on: A-549; experiment: Antitumor cell screening, A-549 growth inhibition (Crystal Violet); type: cell-based; conditions: Homo sapiens, 72 h; A549; three days incubation at 37° C.; approximate IC50
Protocol: as §1, §2, §3

SMILES: C/C1=C\C(C)CC(C)OC(=O)C(C(C)C)NC(=O)C(Cc2ccc(O)c(I)c2)N(C)C(=O)C(C)NC(=O)C(C)C1 (stereo not shown) [Compound 3, geodiamolide TA]
- IC50 [1]: 0.005 µg/mL (≈ 0.00747 µM)
- IC50 [2]: 0.01 µg/mL (≈ 0.0149 µM)
- IC50 [3]: 0.01 µg/mL (≈ 0.0149 µM)
- IC50 [4]: 0.01 µg/mL (≈ 0.0149 µM)

Reference: patent US5661175A, “Hemiasterlin and geodiamolide TA” (priority 1995, dated 1997)
